Assay results as given in ChEMBL document CHEMBL5241111, “Non-steroidal anti-inflammatory drugs: recent advances in the use of synthetic COX-2 inhibitors” (RSC Med Chem, 2022).
Values after ≈ are worked out from the molar mass of the structure shown. One block for each compound: values may come before it.

Columns and labels:
[1] = target: T1, Prostaglandin G/H synthase 2 (Homo sapiens, UniProt P35354); experiment: Inhibition of human recombinant COX-2 using arachidonic acid as substrate preincubated for 5 mins followed by substrate addition and measured after 10 mins by microplate reader analysis
T1 sequence (P35354 whole entry): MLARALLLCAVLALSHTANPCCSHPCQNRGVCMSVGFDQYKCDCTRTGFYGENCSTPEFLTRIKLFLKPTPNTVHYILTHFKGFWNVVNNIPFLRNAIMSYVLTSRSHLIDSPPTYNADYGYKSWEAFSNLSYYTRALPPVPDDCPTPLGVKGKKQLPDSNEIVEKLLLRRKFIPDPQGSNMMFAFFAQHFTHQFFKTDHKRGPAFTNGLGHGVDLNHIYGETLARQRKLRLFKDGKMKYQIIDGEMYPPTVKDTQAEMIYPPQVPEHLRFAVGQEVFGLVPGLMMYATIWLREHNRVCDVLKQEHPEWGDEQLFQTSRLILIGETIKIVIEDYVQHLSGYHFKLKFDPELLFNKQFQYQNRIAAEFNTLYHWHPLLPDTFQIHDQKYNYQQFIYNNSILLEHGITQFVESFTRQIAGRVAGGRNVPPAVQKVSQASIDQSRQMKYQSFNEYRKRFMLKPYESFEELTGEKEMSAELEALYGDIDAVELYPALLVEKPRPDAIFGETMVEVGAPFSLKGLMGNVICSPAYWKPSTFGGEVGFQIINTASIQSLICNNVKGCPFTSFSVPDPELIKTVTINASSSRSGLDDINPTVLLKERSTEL

[2] = target: T1, Prostaglandin G/H synthase 2; experiment: Inhibition of human COX-2 using arachidonic acid as substrate preincubated for 5 mins followed by substrate addition and measured after 2 mins by colorimetric assay
Alpha-glucosidase = Alpha-glucosidase (Saccharomyces cerevisiae S288c, UniProt P53341+P38158+P07265); experiment: Inhibition of Saccharomyces cerevisiae alpha-glucosidase using PNPG as substrate preincubated for 10 mins followed by substrate addition by spectrophotometric method; type: protein assay
Homo sapiens [3] = organism: Homo sapiens; experiment: Inhibition of ROS production in human blood; type: functional
Dihydrofolate reductase = target: T2, Dihydrofolate reductase (Homo sapiens, UniProt P00374); experiment: Inhibition of DHFR (unknown origin)
T2 sequence (P00374 whole entry): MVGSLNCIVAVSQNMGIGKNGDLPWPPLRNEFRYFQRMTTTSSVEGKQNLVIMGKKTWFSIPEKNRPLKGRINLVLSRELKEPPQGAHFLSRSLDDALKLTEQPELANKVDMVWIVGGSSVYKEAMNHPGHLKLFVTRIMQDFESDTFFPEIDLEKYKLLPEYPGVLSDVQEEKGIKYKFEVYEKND

[4] = target: T1, Prostaglandin G/H synthase 2; experiment: Inhibition of COX-2 (unknown origin) by colorimetric assay
[5] = target: T3, Prostaglandin G/H synthase 2 (Homo sapiens) (UniProt P35354); experiment: Potency index, ratio of celecoxib IC50 to test compound IC50 for inhibition of COX-2 (unknown origin) by colorimetric assay
T3 sequence (whole entry): T1 sequence (P35354 whole entry)

MCF7 = experiment: cells; conditions: Homo sapiens, MCF7, 48 h
[6] = target: T1, Prostaglandin G/H synthase 2; experiment: Inhibition of human recombinant COX-2 by enzyme immunoassay
[7] = target: cGMP-specific 3',5'-cyclic phosphodiesterase (Homo sapiens) (UniProt O76074); experiment: Inhibition of human PDE5 using cGMP as substrate at 10 uM preincubated for 5 mins followed by substrate addition and measured after 30 mins by HPLC analysis relative to control; conditions: time 35.0 min
Homo sapiens [8] = organism: Homo sapiens; experiment: Inhibition of ROS production in human blood at 25 ug/ml relative to control; type: functional
Rattus norvegicus [9] = experiment: Antiinflammatory activity against rat model of carrageenan induced paw edema assessed as inhibition of edema measured after 1 to 6 hrs relative to control; type: functional; conditions: time 1-6 hrs
Homo sapiens [10] = organism: Homo sapiens; experiment: Potency index, ratio of ibuprofen IC50 to test compound IC50 for inhibition of ROS production in human blood; type: functional
Rattus norvegicus [11] = experiment: Antiinflammatory activity against rat model of carrageenan induced paw edema assessed as reduction in TNFalpha level in plasma at 50 mg/kg, po pretreated for 1 hr followed by carrageenan addition and measured after 6 hrs by ELISA relative to control; type: functional; conditions: time 7 hrs
Rattus norvegicus [12] = experiment: Antiinflammatory activity against rat model of carrageenan induced paw edema assessed as reduction in PGE2 level in plasma at 50 mg/kg, po pretreated for 1 hr followed by carrageenan addition and measured after 6 hrs by ELISA relative to control; type: functional; conditions: time 7 hrs
Rattus norvegicus [13] = experiment: Antiinflammatory activity against rat model of carrageenan induced paw edema assessed as reduction in IL-6 level in plasma at 50 mg/kg, po pretreated for 1 hr followed by carrageenan addition and measured after 6 hrs by ELISA relative to control; type: functional; conditions: time 7 hrs
Rattus norvegicus [14] = experiment: Antiinflammatory activity against rat model of carrageenan induced paw edema assessed as inhibition of edema at 50 mg/kg, po pretreated for 1 hr followed by carrageenan addition and measured after 1 to 6 hrs relative to control; type: functional; conditions: time 2-7 hrs
Albumin = Albumin (Bos taurus, UniProt P02769); experiment: Inhibition of bovine serum albumin denaturation incubated for 15 mins
Chain of Albumin (P02769 whole entry): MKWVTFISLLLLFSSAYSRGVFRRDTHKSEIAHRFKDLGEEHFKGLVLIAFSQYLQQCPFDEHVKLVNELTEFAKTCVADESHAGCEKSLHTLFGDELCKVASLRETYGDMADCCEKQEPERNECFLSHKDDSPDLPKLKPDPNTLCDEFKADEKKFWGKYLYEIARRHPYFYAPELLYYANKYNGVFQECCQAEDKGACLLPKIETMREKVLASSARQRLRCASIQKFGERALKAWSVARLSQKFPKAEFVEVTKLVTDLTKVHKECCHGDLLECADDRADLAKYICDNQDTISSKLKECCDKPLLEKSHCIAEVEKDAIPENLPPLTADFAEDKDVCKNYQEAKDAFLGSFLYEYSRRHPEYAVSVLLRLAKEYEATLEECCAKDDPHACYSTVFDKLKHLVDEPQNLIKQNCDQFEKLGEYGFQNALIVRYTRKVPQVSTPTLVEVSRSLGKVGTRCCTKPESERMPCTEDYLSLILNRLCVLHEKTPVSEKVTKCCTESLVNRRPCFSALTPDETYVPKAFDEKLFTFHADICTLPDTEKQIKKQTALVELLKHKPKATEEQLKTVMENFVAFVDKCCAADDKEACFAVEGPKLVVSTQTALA

[15] = target: T1, Prostaglandin G/H synthase 2; experiment: Inhibition of human COX-2 using arachidonic acid as substrate incubated for 30 secs by ELISA
[16] = target: COX-1/COX-2 (Homo sapiens) (UniProt P35354+P23219); experiment: Selectivity index, ratio of IC50 for inhibition of COX-1 (unknown origin) to IC50 for inhibition of COX-2 (unknown origin); type: protein assay
HCT-116 = experiment: cells; conditions: Homo sapiens, HCT-116, 48 h
A549 = experiment: cells; conditions: Homo sapiens, A549, 48 h

SMILES: CCCCCC1C(C)=c2c(OCc3nnc(SCC(=O)N4CCN(c5ccccc5)CC4)o3)nn(C)c(=O)c2=C1C (configuration not stated)
- IC50 [2]: 6800 nM

SMILES: CC(=O)Oc1cc2oc(-c3cccc(F)c3)cc2cc1-c1c[se]nn1
- IC50 (Alpha-glucosidase): 1030 nM

SMILES: CC(C)Cc1ccc(C(C)C(=O)O)cc1 (configuration not stated) [IBUPROFEN]
- IC50 (Homo sapiens [3]): 11.2 µg/mL (≈ 54.3 µM)

SMILES: Nc1ccc(S(=O)(=O)Nc2ncccn2)cc1 [SULFADIAZINE]
- IC50 (Dihydrofolate reductase): 130 nM

SMILES: CC(=O)Oc1cc2oc(-c3ccccc3)cc2cc1-c1c[se]nn1
- IC50 (Alpha-glucosidase): 1030 nM

SMILES: CC1=NN(c2ccc(S(N)(=O)=O)cc2)C(=O)/C1=C\c1sccc1C
- IC50 [1]: 150 nM

SMILES: O=c1/c(=C/c2cccc(O)c2)sc2nc(C34CC5CC(CC(C5)C3)C4)nn12
- IC50 [6]: 50000 nM

SMILES: CC1=c2c(OCc3nnc(SCC(=O)N4CCN(c5ncccn5)CC4)o3)nn(C)c(=O)c2=C(C)C1c1ccccc1 (configuration not stated)
- IC50 [2]: 6800 nM

SMILES: COc1cc(/C=c2\sc3nc(C45CC6CC(CC(C6)C4)C5)nn3c2=O)ccc1O
- IC50 [6]: 50000 nM

SMILES: COc1ccc(-c2cc(-c3ccc(F)cc3)n(-c3ccc(S(N)(=O)=O)cc3)n2)cc1OC
- inhibition (INH) (Rattus norvegicus [9]): 42.1%

SMILES: COc1cc(C2CC(c3cccc(-n4cnnn4)c3)=NN2C(C)=O)cc(OC)c1OC (configuration not stated)
- inhibition in vivo at 50 mg/kg (Rattus norvegicus [11]): 55.4%
- inhibition in vivo at 50 mg/kg (Rattus norvegicus [12]): 81%
- inhibition in vivo at 50 mg/kg (Rattus norvegicus [13]): 61.6%
- inhibition in vivo at 50 mg/kg (Rattus norvegicus [14]): 29.2%

SMILES: COc1cc(-c2cc(-c3cccc(-n4cnnn4)c3)no2)cc(OC)c1OC
- inhibition in vivo at 50 mg/kg (Rattus norvegicus [12]): 81%
- inhibition in vivo at 50 mg/kg (Rattus norvegicus [14]): 29.2%

SMILES: CC(=O)Oc1cc2oc(-c3cccc(Cl)c3)cc2cc1-c1c[se]nn1
- IC50 (Alpha-glucosidase): 1030 nM

SMILES: CC1=NN(c2ccc(S(N)(=O)=O)cc2)C(=O)/C1=C\c1c[nH]c2ccccc12
- IC50 [1]: 150 nM

SMILES: C/C(=C/C(=O)Nc1nccs1)Nc1ccccc1
- inhibition [7]: 100%

SMILES: CCCCCC1C(C)=c2c(OCc3nnc(SCC(=O)N4CCN(c5ncccn5)CC4)o3)nn(C)c(=O)c2=C1C (configuration not stated)
- IC50 [2]: 6800 nM

SMILES: CC(=O)Oc1cc2oc(-c3ccc(C)cc3)cc2cc1-c1c[se]nn1
- IC50 (Alpha-glucosidase): 1030 nM

SMILES: CS(=O)(=O)c1ccc(-c2nn(-c3ccc(S(N)(=O)=O)cc3)cc2C=O)cc1
- IC50 [15]: 17 nM
- Ratio IC50 [16]: 0.008

SMILES: CC1=NN(c2ccc(S(N)(=O)=O)cc2)C(=O)/C1=C\c1cccc(OCc2ccccc2)c1
- IC50 [1]: 150 nM

SMILES: CS(=O)(=O)c1ccc(-c2cc(-c3ccc(F)cc3)n(-c3ccc(S(N)(=O)=O)cc3)n2)cc1
- inhibition (INH) (Rattus norvegicus [9]): 42.1%

SMILES: C/C(=C/C(=O)Nc1nccs1)Nc1ccc(Cl)cc1
- inhibition [7]: 100%

SMILES: CC(=O)Oc1cc2oc(-c3ccc(F)cc3)cc2cc1-c1c[se]nn1
- IC50 (Alpha-glucosidase): 1030 nM

SMILES: COc1ccc(-c2cc(-c3ccc(F)cc3)n(-c3ccc(S(N)(=O)=O)cc3)n2)cc1
- inhibition (INH) (Rattus norvegicus [9]): 42.1%

Further lines, with some results ahead:

- IC50 [1]: 150 nM
SMILES: COc1cc(/C=C2\C(=O)N(c3ccc(S(N)(=O)=O)cc3)N=C2C)ccc1OCC#N

- IC50 [1]: 150 nM
SMILES: CCOc1cc(/C=C2\C(=O)N(c3ccc(S(N)(=O)=O)cc3)N=C2C)ccc1O

- IC50 [4]: 320 nM
- Ratio IC50 [5]: 12
SMILES: CCCCNc1cc(C(=O)n2nc(C)cc2-c2ccccc2)cc(S(N)(=O)=O)c1Oc1ccccc1

- IC50 (MCF7): 4370 nM
SMILES: CCOP(=O)(OCC)C(NC(=O)c1cc(-c2cccc3ccccc23)n(-c2ccc(F)cc2)n1)c1ccccc1 (configuration not stated)

- IC50 (Dihydrofolate reductase): 280 nM
SMILES: NS(=O)(=O)c1ccc(N2C(=O)/C(=C/c3ccc(OC(=O)c4ccccc4)cc3)N=C2c2ccccc2)cc1

- inhibition [7]: 100%
SMILES: COc1ccc(N/C(C)=C\C(=O)Nc2nccs2)cc1

- IC50 (Homo sapiens [3]): 3.7 µg/mL (≈ 13 µM)
SMILES: CCCC(=O)Nc1ccc(OC(=O)c2ccncc2)cc1
- inhibition in vivo at 25 µg/mL (Homo sapiens [8]): 85.4%

- IC50 (Homo sapiens [3]): 1.42 µg/mL (≈ 6.63 µM)
SMILES: Nc1cccc(OC(=O)c2ccncc2)c1
- inhibition in vivo at 25 µg/mL (Homo sapiens [8]): 95.9%
- Ratio IC50 (Homo sapiens [10]): 8

- IC50 (Albumin): 43500 nM
SMILES: COc1ccc(C2=NN(C(N)=O)C(c3cn(-c4ccccc4)nc3-c3ccccc3)C2)cc1 (configuration not stated)

- IC50 [15]: 17 nM
- Ratio IC50 [16]: 0.008
SMILES: O=Cc1cn(-c2ccc(Br)cc2)nc1-c1ccc(Br)cc1

- IC50 [4]: 170 nM
- Ratio IC50 [5]: 12
SMILES: CCCCNc1cc(-c2n[nH]c(=S)n2-c2ccc(Br)cc2)cc(S(N)(=O)=O)c1Oc1ccccc1

- IC50 (Dihydrofolate reductase): 280 nM
SMILES: COc1cc(/C=C2\N=C(c3ccccc3)N(c3ccc(C(=O)O)cc3)C2=O)ccc1OC(=O)c1ccccc1

- IC50 (HCT-116): 6430 nM
- IC50 (A549): 6430 nM
SMILES: CCOc1ccc2nc(NC(=O)CSc3nnc(Cc4c[nH]c5ccccc45)o3)sc2c1

- IC50 (Alpha-glucosidase): 1030 nM
SMILES: COc1ccc(-c2cc3cc(-c4c[se]nn4)c(OC(C)=O)cc3o2)cc1

- IC50 [1]: 150 nM
SMILES: CC1=NN(c2ccc(S(N)(=O)=O)cc2)C(=O)/C1=C\c1ccc(F)cc1C

- IC50 [2]: 6800 nM
SMILES: CC1=c2c(OCc3nnc(SCC(=O)N4CCN(c5ccccc5)CC4)o3)nn(C)c(=O)c2=C(C)C1c1ccccc1 (configuration not stated)

- IC50 (Dihydrofolate reductase): 280 nM
SMILES: COc1cc(/C=C2\N=C(c3ccccc3)N(c3ccc(S(N)(=O)=O)cc3)C2=O)ccc1OC(=O)c1ccccc1
